Entries after “also recorded” stand apart in the source; their conditions may differ.
What was measured:
[1] = test system: L2, SW982, HCT116, 231 cells; test: Cytotoxicity assay (MTT) on four cell lines; format: cell-based, rat, human; conditions: 48 h, 10- to 10000-fold dilutions of 1 mg/g
Description: Four different cell lines were used for the evaluation of the tested formulations and unformulated bufotenin. • L2:Rat lung cells (Normal) https://www.atcc.org/products/ccl-149 • SW982: The human synovial sarcoma cells https://www.atcc.org/products/htb-93 • HCT116: The human colon cancer cells https://www.atcc.org/products/ccl-247 • 231: The human breast cancer cells https://www.atcc.org/products/crm-htb-26
Cytotoxicity assay: The effect of the NEs on cell viability was measured by MTT assay following the method by Mosmann and colleagues. Briefly, the cells were seeded in a 96 well micro titer plate (100 μL per well) with replications. After 24 h, cells were treated with 50 μL of the analyte at four different dilutions (10,100,1000, and 10000-fold), added directly to wells with culture media. The starting concentration for Kolliphor-Bf-SNEDDS, Kolliphor-Bfa-t-SNEDDSand unformulated bufoteninin DMSO were 1 mg·g^−1. After incubation for 48 h, the media was discarded. 100 μL of 0.5 mg·mL^−1 MTT stock solution was added to each well and incubated for 4 h at 37° C. The obtained formazan crystals were solubilized with DMSO, and the absorbance was measured at 570 nm using a microplate reader (SpectraMax M5e, Molecular Devices, USA). Cell viability (%) was calculated as a ratio of absorbance (A570) in treated cells to absorbance in control cells (intact cells without treatment) (A570).

[2] = test system: human glioma U251 GBM cells; test: Cellular uptake, flow cytometry and fluorescence microscopy; format: cell-based; conditions: flow cytometry and fluorescence imaging
Description: Cellular uptake studies: The human glioma U251 GBM cells were cultured at 5×10^4 cells per well in 12 plates using EMEM media supplemented with 10% FBS, 0.5% PenStrep and 1% w/non-essential amino acids (NEAA); then, washed with 0.05% trypsin. The cells were cells were incubated overnight at 37° C. in a humidified 5% CO2 atmosphere. The cells were treated with NEs loaded with bufotenine and Nile Red dye diluted to 0.1 mg/ml in PBS. Untreated cells were used as a negative control a long with a solution of unformulated API and Nile Red. This was done to serve as a sort of a positive control against the negative control of the untreated cells. After 24 h exposure, cells were washed twice with PBS and then collected in PBS-EDTA media (2 mM). The flow cytometry was performed using a BD C6 Flow Cytometry apparatus at a wavelength of 488 nm laser. For each experiment 10,000 cells were gated per sample and each sample was performed in triplicate. These cells prepared as such were used for fluorescence analysis. Fluorescence images were taken using a Leica CRT 6500 at the desired magnification using Texas Red Set (Leica TX2 ET Set) filter and exciting the samples using a continuous wave Ar+ laser at 488 nm.

CN(C)CCc1c[nH]c2ccc(O)cc12 [unformulated bufotenin, 5-Hydroxy-N,N-dimethyltryptamine]
cytotoxicity / cell viability [1]: no effect on their viability | cellular uptake (in words) [2]: no unformulated bufotenin penetrated the glioma cells; also recorded: negligible
